What all share (assay): NCI anticancer screen, dose series, 48 h
For assay [1], the system named is U-251.
Assay [2] relates to MOLT-4.
Assay [3] concerns MDA-MB-435.
The test system of assay [4] is HCT-116.
Assay [5] relates to OVCAR-3.
Assay [6] concerns A549.
Assay [7] deals with MCF7.
Assay [8] deals with HOP-62.
Assay [9] relates to EKVX.
Assay [10] deals with TK-10.
For assay [11], the system named is PC-3.
In assay [12] the test system is SN12C.
Assay [13] has as its system NCI-H226.
Assay [14] concerns NCI-H522.
For assay [15], the system named is SK-MEL-5.
Assay [16] relates to SF-295.
For assay [17], the system named is OVCAR-4.
The test system of assay [18] is SR.
Assay [19] concerns T47D.
The test system of assay [20] is ACHN.

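Values below derive from 48-hour exposures of cells grown in 96-well plates, with endpoints linearly interpolated between the two concentrations bracketing the appropriate inhibition level. The concentration for 50% growth inhibition is given as GI50.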 Activity calls are given as the source filed them. Cut-off read from the data, not from the text of the source: active = GI50 up to about 1.1 µM and inactive = higher. *1 amine or outer side, *2 acyl side, *3 side chain or, on linkers, in order; H or OH if unused. Where a SMILES comes first, the peptide text is derived from it. Bridges are numbered along the chain shown (N, C = ends). [ ]: non-standard residue; d: D form. The star is where a group is joined. X36 = O=C(C(CCCCNO[*:3])N[*:1])[*:2]; Fmoc = O=C(OCC1c2ccccc2-c2ccccc21)*

As for `COc1ccc(/C=C/C(=O)N[C@@H]2C(=O)N3[C@@H]2SC(C)(C)[C@@H]3C(=O)O)cc1OC`, the GI50 in [1], in [2], in assay [3], in [4], in assay [5] and in assay [6] was > 100 µM (inactive) each time. For the same compound, the GI50 in [7], in assay [8], in assay [9], in assay [10], in [11] and in assay [12] was > 100 µM (inactive) in each case. Besides, the GI50 in assay [13] was > 100 µM (inactive); in [14], 85.5 µM (inactive); in assay [15] it was > 100 µM (inactive); in assay [16] it was > 100 µM (inactive); in assay [17] it was > 100 µM (inactive); in assay [18] it was > 100 µM (inactive). Also, the GI50 in assay [19] and in assay [20] was > 100 µM (inactive) each time.
On to `O=C1c2cccc3cccc(c23)C(=O)N1CCCNCCCCNCCCN1C(=O)c2cccc3cccc(c23)C1=O`, for which the GI50 in assay [1] is 0.0402 µM (active); in assay [2] it was < 0.01 µM (active); in assay [3] it was 0.159 µM (active); in [4], 0.0738 µM (active); in [5], 0.2 µM (active); in assay [6], 0.0495 µM (active). Moreover, the GI50 is < 0.0138 µM (active) in [7]; 0.205 µM (active) in assay [8]; 0.986 µM (active) in assay [9]; 1.57 µM (inactive) in [10]; 0.17 µM (active) in [11]; 0.104 µM (active) in assay [12]. Besides, the GI50 was 0.748 µM (active) in [13]; < 0.0112 µM (active) in assay [14]; 0.644 µM (active) in [15]; 0.658 µM (active) in assay [16]; 0.2 µM (active) in assay [17]; < 0.01 µM (active) in assay [18]. In addition, the GI50 in [19] was 0.515 µM (active); in assay [20] it was 0.757 µM (active).
Take `NC(=O)CNC(=O)C1CCCN1C(=O)C1CCCCNOC(=O)CCC(NC(=O)OCC2c3ccccc3-c3ccccc32)C(=O)NC(Cc2c[nH]c3ccccc23)C(=O)N1` (stereo not given) (Fmoc-EW[X36]PG-NH2; ester 1-3; configuration not given here): the GI50 in assay [1], in assay [2], in assay [3], in [4], in [5] and in assay [6] was > 100 µM (inactive) each time. The GI50 in [7] was 47.9 µM (inactive); in assay [8], > 100 µM (inactive); in assay [9] it was > 100 µM (inactive); in [10], > 100 µM (inactive); in [11], > 100 µM (inactive); in assay [12], > 100 µM (inactive). Moreover, the GI50 in assay [13], in assay [14], in assay [15], in assay [16], in [17] and in [18] was > 100 µM (inactive) in each case. The GI50 in assay [19] and in [20] was > 100 µM (inactive) throughout.
As for `O=C(O)c1ccccc1-c1ccccc1C(=O)c1ccccc1`, the GI50 in [1], in assay [2], in assay [3], in assay [4], in [5] and in assay [6] was > 100 µM (inactive) throughout. The GI50 in assay [7], in [8], in assay [9], in assay [10], in assay [11] and in assay [12] was > 100 µM (inactive) each time. Also, the GI50 in [13], in assay [14], in assay [15], in assay [16], in assay [17] and in [18] was > 100 µM (inactive) each time. For the same compound, the GI50 in assay [19] and in [20] was > 100 µM (inactive) throughout.
For `COc1ccc(CC[N+]2(C)COc3cc4oc(=O)cc(C)c4cc3C2)cc1OC` (stereo not given), the GI50 in assay [1] was > 100 µM (inactive); in assay [2] it was 1.61 µM (inactive); in assay [3], > 100 µM (inactive); in assay [4], > 100 µM (inactive); in assay [5], > 100 µM (inactive); in [6], > 100 µM (inactive). Also, the GI50 in [7], in assay [8], in [9], in assay [10], in assay [11] and in [12] was > 100 µM (inactive) each time. Further, the GI50 in assay [13] is > 100 µM (inactive); in assay [14], > 100 µM (inactive); in assay [15], > 100 µM (inactive); in [16], > 100 µM (inactive); in assay [17] it was > 100 µM (inactive); in [18], 0.0782 µM (active). Moreover, the GI50 in [19] and in [20] was > 100 µM (inactive) in each case.
For `O=C1CS(=O)(=O)C(c2cccc(Oc3ccccc3)c2)N1c1cccc(Cl)c1` (stereo not given), the GI50 was 21.2 µM (inactive) in assay [1]; 19.1 µM (inactive) in assay [2]; 13.9 µM (inactive) in assay [3]; 13.8 µM (inactive) in assay [4]; 24.5 µM (inactive) in assay [5]; 37.3 µM (inactive) in assay [6]. Also, the GI50 is 14.8 µM (inactive) in assay [7]; 40.2 µM (inactive) in assay [8]; 17.6 µM (inactive) in assay [9]; 26.6 µM (inactive) in [10]; 20.6 µM (inactive) in [11]; 31.8 µM (inactive) in [12]. For the same compound, the GI50 in assay [13] is 27.7 µM (inactive); in assay [14], 14.9 µM (inactive); in [15], 15.7 µM (inactive); in [16], 33.4 µM (inactive); in assay [17], 26.5 µM (inactive); in assay [18], 12.1 µM (inactive). The GI50 in assay [19] is 16.9 µM (inactive); in [20], 24.3 µM (inactive).
As to `CCOC(=O)COC1=Nc2cc(OC)c(OC)c3nc(Cl)cc(c23)C1=O`, the GI50 in assay [1] was 2.94 µM (inactive); in [2] it was 0.383 µM (active); in assay [3], 1.4 µM (inactive); in assay [4], 1.67 µM (inactive); in assay [5], 1.75 µM (inactive); in assay [6], 6.18 µM (inactive). In addition, the GI50 was 1.7 µM (inactive) in assay [7]; 3.07 µM (inactive) in assay [8]; 0.716 µM (active) in assay [9]; 1.96 µM (inactive) in assay [10]; 1.79 µM (inactive) in assay [11]; 1.8 µM (inactive) in assay [12]. Also, the GI50 in [13] was 11.1 µM (inactive); in assay [14], 1.6 µM (inactive); in assay [15], 1.88 µM (inactive); in [16] it was 10 µM (inactive); in [17] it was 1.67 µM (inactive); in assay [18] it was 0.94 µM (active). For the same compound, the results for the GI50 in assay [19] and in assay [20] were 2.96 µM (inactive) and 1.66 µM (inactive), respectively.
Regarding `c1ccc2c(c1)cc1n2CCc2c-1[nH]c1ccccc21`, the GI50 in [1], in assay [2], in assay [3], in assay [4], in [5] and in assay [6] was > 10 µM (inactive) throughout. For the same compound, the GI50 in assay [7], in assay [8], in [9], in assay [10], in assay [11] and in assay [12] was > 10 µM (inactive) throughout. Besides, the GI50 in assay [13], in [14], in assay [15], in assay [16], in assay [17] and in [18] was > 10 µM (inactive) each time. Moreover, the GI50 in assay [19] was 3.01 µM (inactive); in assay [20] it was > 10 µM (inactive).
On to `Cc1cccc(Nc2cc(Cl)nc(SCC(=O)O)n2)c1C` [PIRINIXIC ACID], for which the GI50 in [1] was > 100 µM (inactive); in assay [2] it was 63.1 µM (inactive); in [3], > 100 µM (inactive); in assay [4], > 100 µM (inactive); in assay [5], > 100 µM (inactive); in assay [6] it was > 100 µM (inactive). Also, the GI50 in assay [7], in assay [8], in assay [9], in assay [10], in assay [11] and in [12] was > 100 µM (inactive) each time. The GI50 in [13], in [14], in [15], in assay [16], in assay [17] and in assay [18] was > 100 µM (inactive) in each case. Also, the GI50 in [19] and in assay [20] was > 100 µM (inactive) in each case.
`C[C@H](NC1=C(Cl)C(=O)c2c(O)ccc(O)c2C1=O)C(=O)Nc1ccc([N+](=O)[O-])cc1`: the GI50 is 2.58 µM (inactive) in assay [1]; 10 µM (inactive) in assay [2]; 1.57 µM (inactive) in assay [3]; 1.41 µM (inactive) in assay [4]; 1.38 µM (inactive) in [5]; 1.71 µM (inactive) in assay [6]. For the same compound, the GI50 is 1.75 µM (inactive) in assay [7]; 2.45 µM (inactive) in [8]; 4.93 µM (inactive) in assay [9]; 1.95 µM (inactive) in assay [10]; 3.41 µM (inactive) in assay [11]; 1.6 µM (inactive) in [12]. Moreover, the GI50 in [13] was 1.91 µM (inactive); in assay [14], 2.9 µM (inactive); in assay [15], 1.76 µM (inactive); in assay [16] it was 1.89 µM (inactive); in [17], 1.73 µM (inactive); in assay [18], 2.47 µM (inactive). Moreover, the GI50 in assay [19] was 3.25 µM (inactive); in assay [20], 2.94 µM (inactive).

Source of the values: ChEMBL document CHEMBL1201862, “PubChem BioAssay data set” (2004).
